The record followed here is US20240391965A1, “STAPLED ANTIMICROBIAL PEPTIDES (STAMPS) AND USES THEREOF” (Lytica Therapeutics, Inc., priority 2021, published 2024).

Molecules are shown by their SMILES. ≈ marks a conversion by molar mass, not a printed value. Starred links: 1 amine or outer side, 2 acyl side, 3 side chain; linkers in the order of their positions; H or OH if unused. Positions of bridges follow the written chain, without caps; N, C: chain ends. Residues, ends and D or L forms follow the SMILES beside them. mXylylene = c1cc(C[*:1])cc(C[*:2])c1; pXylylene = c1cc(C[*:2])ccc1C[*:1]; X1 = C(=CC[*:2])C[*:1]

The nature of data set [1]: 90 minute cytotoxicity assay (LDH release), renal toxicity. The class given is cell-based. The text has this: In some embodiments, a peptide provided herein has renal toxicity that is at least 10% (e.g., at least 15%, at least 20%, at least 25%, at least 30%, at least 35%, at least 40%, at least 45%, at least 50%, at least 55%, at least 60%, at least 65%, at least 65%, at least 70%, at least 75%, at least 80%, at least 85%, at least 90%, at least 95%, at least 99%) lower than the renal toxicity of the reference. The renal toxicity of a peptide can be measured in vitro using a renal proximal tubule epithelial cell (RPTEC) renal toxicity assay.
(§1) Cell culture: RPTEC were maintained in MEM media supplemented with growth factors. HEPG2 cell line was maintained in Eagle's Minimum Essential Medium (EMEM) supplemented with fetal bovine serum to a final concentration of 10%.
90 minute cytotoxicity assay: Cells were plated in a 96-well format, and after overnight incubation, media was replaced with fresh media. Serial dilutions of StAMPs from a 5 mg/mL water stock, or vehicle, were added to the cells in a final volume of 100 μl. After incubating at 37° C. for 90 min, 50 μl of cell culture media was transferred to a clear 96-well plate, incubated with 50 μl of lactate dehydrogenase (LDH) assay reagent for 10 min, and absorbance measured at 490 nm on a microplate reader.
(§2) Renal toxicity was measured after 90 minutes of incubation, while liver toxicity was measured after 48 hours of incubation with StAMPs. N/A=not tested.
For orientation: LDH in the medium is a marker of cell lysis.

A short description of data set [2]: 48 hours cytotoxicity assay (CellTiter-Glo), liver toxicity. In kind it is cell-based, human.
Excerpt: In some embodiments, a peptide provided herein has hepatic toxicity that is at least 10% (e.g., at least 15%, at least 20%, at least 25%, at least 30%, at least 35%, at least 40%, at least 45%, at least 50%, at least 55%, at least 60%, at least 65%, at least 65%, at least 70%, at least 75%, at least 80%, at least 85%, at least 90%, at least 95%, at least 99%) lower than the hepatic toxicity of the reference. The hepatic toxicity of a peptide can be measured in vitro using a human liver cells (e.g., HepG2) toxicity assay.
as §1
48 hours cytotoxicity assay: Cells were plated in a 96-well format, and after 4 hour incubation to allow attachment, serial dilutions of StAMPs from a 5 mg/mL water stock, or vehicle, were then added to the cells in a final volume of 100 μl. After incubating at 37° C. for 48 hours, 100 μl of CellTiter-Glo® reagent was added to the cells, and the plates were incubated 10 minutes at room temperature. Luminescence was then measured on a microplate reader.
as §2
(Cellular ATP, detected with luciferase, serves as a proxy for viable cell number.)

As to `CC[C@H](C)[C@H](NC(=O)CN)C(=O)N[C@@H](Cc1ccccc1)C(=O)N[C@@H](CO)C(=O)N[C@@H](CCCCN)C(=O)N[C@@H](CC(C)C)C(=O)N[C@@H](C)C(=O)NCC(=O)N[C@H]1CSCc2cccc(c2)CSC[C@@H](C(=O)N[C@@H](CC(C)C)C(=O)N[C@@H](CC(C)C)C(=O)N[C@H](C(=O)N[C@@H](CO)C(=O)NCC(=O)N[C@@H](CC(C)C)C(=O)N[C@@H](CCCCN)C(=O)NCC(N)=O)[C@@H](C)CC)NC(=O)[C@H](CCCCN)NC(=O)[C@H]([C@@H](C)CC)NC(=O)[C@H](CCCCN)NC1=O` [compound 42] (H-GIFSKLAGCKIKCLLISGLKG-NH2; linker 9-13 via mXylylene; N-terminus assumed), the IC50 in data set [1] and in data set [2] was above 200 µg/mL in each case.
For the compound `CC[C@H](C)[C@H](NC(=O)CN)C(=O)N[C@H]1CSCc2ccc(cc2)CSC[C@@H](C(=O)NCC(=O)N[C@@H](CCCCN)C(=O)N[C@@H](CCCCN)C(=O)N[C@H](C(=O)N[C@@H](CCCCN)C(=O)N[C@@H](CC(N)=O)C(=O)N[C@@H](CC(C)C)C(=O)N[C@@H](CC(C)C)C(=O)N[C@H](C(=O)N[C@@H](CO)C(=O)NCC(=O)N[C@@H](CC(C)C)C(=O)N[C@@H](CCCCN)C(=O)NCC(N)=O)[C@@H](C)CC)[C@@H](C)CC)NC(=O)[C@H](CC(C)C)NC(=O)[C@H](CCCCN)NC(=O)[C@H](CO)NC1=O` [compound 40] (H-GICSKLCGKKIKNLLISGLKG-NH2; linker 3-7 via pXylylene; N-terminus assumed), the results for the half-inhibitory concentration (IC50) in data set [1] and in data set [2] were 117 µg/mL (≈ 51.4 µM) and 124 µg/mL (≈ 54.5 µM), respectively.
`CC[C@H](C)[C@H](NC(=O)CN)C(=O)N[C@@H](Cc1ccccc1)C(=O)N[C@H]1CSCC=CCSC[C@@H](C(=O)N[C@@H](CCCCN)C(=O)N[C@@H](CCCCN)C(=O)N[C@H](C(=O)N[C@@H](CCCCN)C(=O)N[C@@H](CC(N)=O)C(=O)N[C@@H](CC(C)C)C(=O)N[C@@H](CC(C)C)C(=O)N[C@H](C(=O)N[C@@H](CO)C(=O)NCC(=O)N[C@@H](CC(C)C)C(=O)N[C@@H](CCCCN)C(=O)NCC(N)=O)[C@@H](C)CC)[C@@H](C)CC)NC(=O)[C@H](C)NC(=O)[C@H](CC(C)C)NC(=O)[C@H](CCCCN)NC1=O` [compound 7] (H-GIFCKLACKKIKNLLISGLKG-NH2; linker 4-8 via X1; N-terminus assumed): the IC50 was 62 µg/mL (≈ 27 µM) in data set [1] and 51 µg/mL (≈ 22.2 µM) in data set [2].
`CC[C@H](C)[C@H](NC(=O)CN)C(=O)N[C@@H](Cc1ccccc1)C(=O)N[C@@H](CO)C(=O)N[C@@H](CCCCN)C(=O)N[C@@H](CC(C)C)C(=O)N[C@@H](C)C(=O)NCC(=O)N[C@@H](CCCCN)C(=O)N[C@@H](CCCCN)C(=O)N[C@H](C(=O)N[C@@H](CCCCN)C(=O)N[C@H]1CSCC=CCSC[C@@H](C(=O)NCC(=O)N[C@@H](CC(C)C)C(=O)N[C@@H](CCCCN)C(=O)NCC(N)=O)NC(=O)[C@H]([C@@H](C)CC)NC(=O)[C@H](CC(C)C)NC(=O)[C@H](CC(C)C)NC1=O)[C@@H](C)CC` [compound 25] (H-GIFSKLAGKKIKCLLICGLKG-NH2; linker 13-17 via X1; N-terminus assumed): the values for the IC50 in data set [1] and in data set [2] were 200 µg/mL (≈ 89.2 µM) and 141 µg/mL (≈ 62.9 µM), respectively.
For `CC[C@H](C)[C@H](NC(=O)CN)C(=O)N[C@@H](Cc1ccccc1)C(=O)N[C@@H](CO)C(=O)N[C@@H](CCCCN)C(=O)N[C@@H](CC(C)C)C(=O)N[C@@H](C)C(=O)NCC(=O)N[C@@H](CCCCN)C(=O)N[C@@H](CCCCN)C(=O)N[C@H](C(=O)N[C@@H](CCCCN)C(=O)N[C@@H](CC(N)=O)C(=O)N[C@H]1CSCc2cccc(c2)CSC[C@@H](C(=O)N[C@@H](CC(C)C)C(=O)N[C@@H](CCCCN)C(=O)NCC(N)=O)NC(=O)[C@H](CO)NC(=O)[C@H]([C@@H](C)CC)NC(=O)[C@H](CC(C)C)NC1=O)[C@@H](C)CC` [compound 26] (H-GIFSKLAGKKIKNCLISCLKG-NH2; linker 14-18 via mXylylene; N-terminus assumed), in that order: 64 µg/mL (≈ 27.6 µM) and 44 µg/mL (≈ 18.9 µM).
For `CC[C@H](C)[C@H](NC(=O)CN)C(=O)N[C@@H](Cc1ccccc1)C(=O)N[C@@H](CO)C(=O)N[C@@H](CCCCN)C(=O)N[C@@H](CC(C)C)C(=O)N[C@H]1CSCC=CCSC[C@@H](C(=O)N[C@@H](CCCCN)C(=O)N[C@@H](CC(N)=O)C(=O)N[C@@H](CC(C)C)C(=O)N[C@@H](CC(C)C)C(=O)N[C@H](C(=O)N[C@@H](CO)C(=O)NCC(=O)N[C@@H](CC(C)C)C(=O)N[C@@H](CCCCN)C(=O)NCC(N)=O)[C@@H](C)CC)NC(=O)[C@H](CCCCN)NC(=O)[C@H](CCCCN)NC(=O)CNC1=O` [compound 4] (H-GIFSKLCGKKCKNLLISGLKG-NH2; linker 7-11 via X1; N-terminus assumed), in that order: around 200 µg/mL (≈ 88.5 µM) and 98 µg/mL (≈ 43.4 µM).
For `CC[C@H](C)[C@H](NC(=O)CN)C(=O)N[C@H]1CSCc2cccc(c2)CSC[C@@H](C(=O)NCC(=O)N[C@@H](CCCCN)C(=O)N[C@@H](CCCCN)C(=O)N[C@H](C(=O)N[C@@H](CCCCN)C(=O)N[C@@H](CC(N)=O)C(=O)N[C@@H](CC(C)C)C(=O)N[C@@H](CC(C)C)C(=O)N[C@H](C(=O)N[C@@H](CO)C(=O)NCC(=O)N[C@@H](CC(C)C)C(=O)N[C@@H](CCCCN)C(=O)NCC(N)=O)[C@@H](C)CC)[C@@H](C)CC)NC(=O)[C@H](CC(C)C)NC(=O)[C@H](CCCCN)NC(=O)[C@H](CO)NC1=O` [compound 39] (H-GICSKLCGKKIKNLLISGLKG-NH2; linker 3-7 via mXylylene), the IC50 in data set [1] turned out to be 113 µg/mL (≈ 49.7 µM); in data set [2], 103 µg/mL (≈ 45.3 µM).
As to `CC[C@H](C)[C@H](NC(=O)CN)C(=O)N[C@@H](Cc1ccccc1)C(=O)N[C@@H](CO)C(=O)N[C@@H](CCCCN)C(=O)N[C@@H](CC(C)C)C(=O)N[C@H]1CSCc2cccc(c2)CSC[C@@H](C(=O)N[C@@H](CCCCN)C(=O)N[C@@H](CC(N)=O)C(=O)N[C@@H](CC(C)C)C(=O)N[C@@H](CC(C)C)C(=O)N[C@H](C(=O)N[C@@H](CO)C(=O)N[C@@H](C)C(=O)N[C@@H](CC(C)C)C(=O)N[C@@H](CCCCN)C(=O)NCC(=O)O)[C@@H](C)CC)NC(=O)[C@H](CCCCN)NC(=O)[C@H](CCCCN)NC(=O)CNC1=O` [compound 98] (H-GIFSKLCGKKCKNLLISALKG-OH; linker 7-11 via mXylylene; N-terminus assumed), the figures for the half-maximal inhibitory concentration (IC50) in data set [1] and in data set [2] were 28 µg/mL (≈ 12 µM) and 50 µg/mL (≈ 21.5 µM), respectively.
Taken in the same sequence, the figures for `CC[C@H](C)[C@H](NC(=O)[C@H](CC(C)C)NC(=O)[C@H](CC(C)C)NC(=O)[C@H](CC(N)=O)NC(=O)[C@H](CCCCN)NC(=O)[C@@H](NC(=O)[C@H](CCCCN)NC(=O)[C@H](CCCCN)NC(=O)CNC(=O)[C@H](C)NC(=O)[C@H](CC(C)C)NC(=O)[C@@H]1CSCc2ccc(cc2)CSC[C@H](N)C(=O)N[C@@H]([C@@H](C)CC)C(=O)N[C@@H](Cc2ccccc2)C(=O)N[C@@H](CO)C(=O)N1)[C@@H](C)CC)C(=O)N[C@@H](CO)C(=O)NCC(=O)N[C@@H](CC(C)C)C(=O)N[C@@H](CCCCN)C(=O)NCC(N)=O` [compound 37] (H-CIFSCLAGKKIKNLLISGLKG-NH2; linker 1-5 via pXylylene; N-terminus assumed) were 140 µg/mL (≈ 60.7 µM) and 33 µg/mL (≈ 14.3 µM).

As a reminder, the IC50 is the concentration that gives 50% inhibition. High values mean lower potency, low ones higher potency.
